The values below come from patent US20250129370A1, “METHOD FOR REDUCING HEPATIC TRIGLYCERIDES” (ADAERATA, LIMITED PARTNERSHIP, priority 2022, published 2025).

In data set [1] the test system is mutated form of PCSK7 3′-UTR. Description: Luciferase reporter assay, miRNA target site-deleted PCSK7 3′-UTR, HEK293T cells. The class given is cell-based, human. From the text:
The interactions between the miRNAs and their probable targets on PCSK7 were explored by cloning the potential target regions in psiCHECK-2™ (Promega, USA), a luciferase reporter vector. In psiCHECK-2™, hRluc, the Renilla luciferase gene, is located upstream of the target regions of interest cloned into the psiCHECK-2™ vector downstream of the Renilla gene. The region corresponding to the 3′-UTR of PCSK7 (926-nt sequences in length) that constituted the predicted miRNA response elements was PCR-amplified and cloned downstream of the Renilla luciferase gene in the psiCHECK-2™ vector (Promega, USA). For the confirmation of whether miRNA response elements (miRNA target sites) on the 3′-UTR of PCSK7 were active and had direct interactions with the miRNAs, different mutants (plasmids) were constructed via splicing by over-hang-extension (SOEing) PCR. For miR-125a-5p and miR-143-3p, each of which has two miRNA response elements on PCSK7 3′-UTR, three different mutant constructs were built. Two constructs were made by deleting a putative miRNA target site, and the third one was made by omitting both putative miRNA target sites in the 3′-UTR sequence of PCSK7. In the miR-409-3p mutant construct, a putative miRNA target site was deleted from the 3′-UTR sequence.
The HEK293T cells were co-transfected through the application of the wild-type psiCHECK-2, the wild-type PCSK7 3′-UTR, the mutant PCSK7 3′-UTR, and the miR-overexpressing vectors so that the direct interactions of the nominated miRNAs with PCSK7 3′-UTR could be investigated. In brief, 150 ng of the wild-type or mutated 3′-UTR constructs and 300 ng of the miRNA-expressing vectors were co-transfected in HEK293T-cultured 48-well plates using FuGENE™ (Invitrogen, USA). Additionally, the psiCHECK-2 and pEGFP-C1 mock vectors were transfected and utilized as controls for luciferase assay and transfection, respectively. Transfection efficiency was monitored by fluorescent microscopy (Nikon TE2000S, Japan) 36 hours following the procedure.
The PsiCHECK-2 reporter construct plasmid contained the Renilla luciferase gene upstream of PCSK7 3′-UTR and an independent firefly luciferase gene as an internal control for normalization. Forty-eight hours after HEK293T co-transfection, the luciferase reporter assay was carried out employing the Dual-Luciferase Reporter Assay System (Promega, USA) with a luminometer (Titertek-Berthold, Germany) in accordance with the manufacturer's protocol. Each sample was performed in triplicate, and the experiment was repeated at least three biological times. In short, a lysis buffer was added to each well after the removal of the media of the cell. Then, LARII Reagent was added, and after 20 minutes, the firefly luciferase activity was measured as a control. Afterward, Renilla activity was determined using Stop & Glo Reagent. The relative luciferase activity was calculated using the following formula: ΔFold Activity of Luciferase (Renilla/Firefly)=Average Renilla/Firefly from Samples A/B.
A luciferase reporter assay further confirmed that miR-125a-5p, miR-143-3p, and miR-409-3p directly targeted the 3′-UTR of the PCSK7 transcript since the negative regulatory effect was lost upon the deletion of the miRNA target sites (miR-125a-5p, miR-143-3p, and miR-409-3p) on the 3′-UTR of the PCSK7 reporter plasmid (FIGS. 28A-B). In this regard, three different mutated miR plasmids were constructed for both miR-125a-5p and miR-143-3p. Single-target sites of each miRNA were omitted individually in two separate plasmids, and the two putative binding sites of the miRNAs were deleted in the other plasmid.
(In general: Reporter assays use an easily measured gene product as a stand-in for the process of interest.)

Data set [2] addresses T1, secretory short N-terminal fragment of apoB (s-apoB; aa 1-965), P04114.
T1 chain: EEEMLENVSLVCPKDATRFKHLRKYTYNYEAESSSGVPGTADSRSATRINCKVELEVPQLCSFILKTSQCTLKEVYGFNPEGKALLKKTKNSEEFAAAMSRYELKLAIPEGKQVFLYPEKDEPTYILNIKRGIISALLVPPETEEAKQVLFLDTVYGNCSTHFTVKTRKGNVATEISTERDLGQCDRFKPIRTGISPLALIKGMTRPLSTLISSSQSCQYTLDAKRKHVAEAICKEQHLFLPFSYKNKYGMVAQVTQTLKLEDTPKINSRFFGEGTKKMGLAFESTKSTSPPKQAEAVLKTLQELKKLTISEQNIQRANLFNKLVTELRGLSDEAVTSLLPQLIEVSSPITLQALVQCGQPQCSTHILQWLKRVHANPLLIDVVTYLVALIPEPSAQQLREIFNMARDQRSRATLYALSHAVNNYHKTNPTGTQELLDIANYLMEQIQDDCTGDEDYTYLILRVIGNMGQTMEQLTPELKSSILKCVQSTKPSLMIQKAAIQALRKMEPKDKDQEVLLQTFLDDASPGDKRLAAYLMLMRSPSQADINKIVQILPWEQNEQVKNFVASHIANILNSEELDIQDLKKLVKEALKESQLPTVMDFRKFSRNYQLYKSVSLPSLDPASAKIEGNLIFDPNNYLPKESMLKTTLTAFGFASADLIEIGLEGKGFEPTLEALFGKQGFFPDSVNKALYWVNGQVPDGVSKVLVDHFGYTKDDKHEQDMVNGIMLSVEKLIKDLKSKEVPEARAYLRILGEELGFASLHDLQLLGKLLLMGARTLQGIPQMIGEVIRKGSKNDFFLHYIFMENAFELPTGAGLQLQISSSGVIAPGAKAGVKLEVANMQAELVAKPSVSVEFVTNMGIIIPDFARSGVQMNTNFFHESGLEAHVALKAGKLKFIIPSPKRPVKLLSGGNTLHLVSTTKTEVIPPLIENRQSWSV

For “miR-409-3p: miRNA with one target site in the PCSK7 3′-UTR, overexpressed from precursor vector (GAAUGUUGCUCGGUGAACCCCU; miRNA expressed from a precursor vector, further chemistry not given here)”, in data set [1] (only putative target site of miR-409-3p absent), the luciferase activity result was “did not lead to a reduction”.
For “miR-143-3p: miRNA with two target sites in the PCSK7 3′-UTR, overexpressed from precursor vector (UGAGAUGAAGCACUGUAGCUC; miRNA expressed from a precursor vector, further chemistry not given here)”, the relative luciferase activity entry in data set [1] (Mut-a, deletion of the first target site) is “considerably diminished”; in data set [1] (Mut-a,b, deletion of both miRNA target sites), “no significant effect”; in data set [1] (Mut-b, deletion of the second target site) it was “considerably diminished”.

B1: human PC7 (overexpressed in IHH cells) (protein)
chain: SVHFNDPKYPQQWHLNNRRSPGRDINVTGVWERNVTGRGVTVVVVDDGVEHTIQDIAPNYSPEGSYDLNSNDPDPMPHPDVENGNHHGTRCAGEIAAVPNNSFCAVGVAYGSRIAGIRVLDGPLTDSMEAVAFNKHYQINDIYSCSWGPDDDGKTVDGPHQLGKAALQHGVIAGRQGFGSIFVVASGNGGQHNDNCNYDGYANSIYTVTIGAVDEEGRMPFYAEECASMLAVTFSGGDKMLRSIVTTDWDLQKGTGCTEGHTGTSAAAPLAAGMIALMLQVRPCLTWRDVQHIIVFTATRYEDRRAEWVTNEAGFSHSHQHGFGLLNAWRLVNAAKIWTSVPYLASYVSPVLKENKAIPQSPRSLEVLWNVSRMDLEMSGLKTLEHVAVTVSITHPRRGSLELKLFCPSGMMSLIGAPRSMDSDPNGFNDWTFSTVRCWGERARGTYRLVIRDVGDESFQVGILRQWQLTLYGSVWSAVDIRDRQRLLESAMSGKYLHDDFALPCPPGLKIPEEDGYTITPNTLKTLVLVGCFTVFWTVYYMLEVYLSQRNVASNQVCRSGPCHWPHRSRKAKEEGTELESVPLCSSKDPDEVETESRGPPTTSDLLAPDLLEQGDWSLSQNKSALDCPHQHLDVPHGKEEQIC
As for B1, in data set [2], the “secretion of s-apoB (apoB21) into the medium, Western blot” value is reported as “overexpression of PC7 enhanced the secretion of s-apoB (apoB21)”.

B2: rat PC7 (protein)
chain: SIHFNDPKYPQQWHLNNRRSPGRDINVTGVWERNVTGRGVTVVVVDDGVEHTVQDIAPNYSPEGSYDLNSNDPDPMPHPDEENGNHHGTRCAGEIAAVPNNSFCAVGVAYGSRIAGIRVLDGPLTDSMEAVAFNKHYQINDIYSCSWGPDDDGKTVDGPHQLGKAALQHGVMAGRQGFGSIFVVASGNGGQHNDNCNYDGYANSIYTVTIGAVDEEGRMPFYAEECASMLAVTFSGGDKMLRSIVTTDWDLQKGTGCTEGHTGTSAAAPLAAGMIALMLQVRPCLTWRDVQHIIVFTATQYEDHRADWLTNEAGFSHSHQHGFGLLNAWRLVNAAKIWTSVPYLASYVSPMLKENKAVPRSPHSLEVLWNVSRTDLEMSGLKTLEHVAVTVSITHPRRGSLELKLFCPSGMMSLIGAPRSMDSDPNGFNDWTFSTVRCWGERARGVYRLVIRDVGDEPLQVGILQQWQLTLYGSTWSPVDIKDRQSLLESAMSGKYLHDDFTLPCPPGLKIPEEDGYSITPNTLKTLVLVGCFSVFWTIYYMLEVCLSQRSKASTHGCRRGCCPWPPQSQNSKEVGTALESMPLCSSKDLDGVDSEHGDCTTASSLLAPELLGEADWSLSQNSKSDLDCPPHQPPDLKDGQIC
On to B2, for which the “secretion of s-apoB (apo21), Western blot” value in data set [2] is “rat PC7 (rPC7) also enhanced by ~2-fold the secretion of s-apoB (apo21)”.
